Source: paper PMC11111408, “Concurrent inhibition of oncogenic and wild-type RAS-GTP for cancer therapy” (Nature, 2024)
Read-outs that look alike come from different tables or passages of the source.

System: panel of 183 cancer cell lines
Test: Cell panel of 183 cancer cell lines, viability (CTG) at Crown Bioscience
Type: cell-based
Details: Homo sapiens
From the text: The panel consisted of cell lines with any substitution at position 12 of KRAS, NRAS or HRAS (KRAS(G12X), NRAS(G12X), HRAS(G12X)); substitutions in KRAS, NRAS or HRAS at any position other than 12, 13 and 61 (KRAS(other/VUS), NRAS(other/VUS), HRAS(other/VUS)); other oncogenic mutations in the RAS pathway (ABL1, ALK, ARAF, BRAF, CBL, EGFR, ERBB2, ERBB3, ERBB4, ERRFI1, FGFR1, FGFR2, FGFR3, FGFR4, FLT3, HRAS, IGF1R, JAK2, KIT, MAP2K1, MAP2K2, MAPK1, MET, NF1, NRAS, NTRK1, NTRK2, NTRK3, PDGFRA, PTPN11, RAC1, RAF1, RASA1, RET, RIT1, ROS1 and SOS1); and no oncogenic mutations in the RAS pathway. […] Cells were incubated for 120 h, and cell viability was determined using the CellTiter-Glo Luminescent Cell Viability Assay (CTG) (Promega, G7572) according to the manufacturer’s instructions.

In the case of CCn1c(-c2cc(N3CCN(C4CC4)CC3)cnc2[C@H](C)OC)c2c3cc(ccc31)-c1csc(n1)C[C@H](NC(=O)[C@H]1[C@@H]3COC[C@@H]31)C(=O)N1CCC[C@H](N1)C(=O)OCC(C)(C)C2 [RMC-7977], the EC50 (JHH-2, read-out: RMC-7977 EC50 (M), JHH2, ROS1 fusion, Liver) is reported as 5.37e-09 M, the EC50 (KARPAS-299, read-out: RMC-7977 EC50 (M), KARPAS299, ALK fusion, Blood/lymphoma) is reported as 9.47e-08 M and the EC50 (KATO III, read-out: RMC-7977 EC50 (M), KATOIII, RAS pathway WT, Stomach) is reported as 1.48e-08 M. It also gave an EC50 (KHOS/NP, read-out: RMC-7977 EC50 (M), KHOSNP, KRAS A59T, Bone) of 1.02e-09 M, an EC50 (KM 12L4, read-out: RMC-7977 EC50 (M), KM12L4, NTRK1 fusion, Large intestine/Colorectum) of 5.14e-09 M and an EC50 (KRAS^G12X mutant cell lines, read-out: median EC50) of 2.4e-09 M. The EC50 (KYSE-150, read-out: RMC-7977 EC50 (M), KYSE150, ERBB3 mut, HN/Esophagus) was 5.92e-09 M, the EC50 (KYSE-270, KYSE270, RTKMUT/fusion, read-out: EC50) was 5.99e-09 M and the EC50 (KYSE-270, read-out: RMC-7977 EC50 (M), KYSE270, EGFR mut, HN/Esophagus) was 5.99e-09 M. It also gave an EC50 (KYSE-410, read-out: RMC-7977 EC50 (M), KYSE410, KRAS G12C, HN/Esophagus) of 4.07e-09 M, an EC50 (LC-2-ad, read-out: RMC-7977 EC50 (M), LC2AD, RET fusion, Lung) of 5.15e-09 M and an EC50 (LCLC-97TM1, read-out: RMC-7977 EC50 (M), LCLC97TM1, KRAS G12V, Lung) of 3.47e-10 M. The EC50 (LCLC-103H, read-out: RMC-7977 EC50 (M), LCLC103H, NF1 LOF, Lung) was 3.67e-07 M, the EC50 (LN-229, read-out: RMC-7977 EC50 (M), LN229, PTPN11 mut, Brain&Nerves) was 6.69e-09 M and the EC50 (LS174T, read-out: RMC-7977 EC50 (M), LS174T, KRAS G12D, Large intestine/Colorectum) was 2.24e-08 M. For the same compound, the EC50 (LS180, read-out: RMC-7977 EC50 (M), LS180, KRAS G12D, Large intestine/Colorectum) was 1.62e-08 M, the EC50 (LS-123, read-out: RMC-7977 EC50 (M), LS123, KRAS G12S, Large intestine/Colorectum) was 1.29e-09 M and the EC50 (LS-513, read-out: RMC-7977 EC50 (M), LS513, KRAS G12D, Large intestine/Colorectum) was 1.2e-09 M. It also gave an EC50 (LS-1034, read-out: RMC-7977 EC50 (M), LS1034, KRAS A146T, Large intestine/Colorectum) of 2.51e-08 M, an EC50 (LoVo, read-out: RMC-7977 EC50 (M), LOVO, KRAS G13D, Large intestine/Colorectum) of 5.62e-08 M and an EC50 (MCF7, read-out: RMC-7977 EC50 (M), MCF7, RAS pathway WT, Breast) of over 1e-06 M. It also gave an EC50 (MES-SA, read-out: RMC-7977 EC50 (M), MESSA, RAS pathway WT, Uterus) of over 1e-06 M, an EC50 (MFE-296, read-out: RMC-7977 EC50 (M), MFE296, RAS pathway WT, Uterus) of over 1e-06 M and an EC50 (MIA PaCa-2, read-out: RMC-7977 EC50 (M), MIAPACA2, KRAS G12C, Lung) of 4.27e-09 M. The EC50 (MKN-1, read-out: RMC-7977 EC50 (M), MKN1, RAS pathway WT, Stomach) was 4.87e-08 M, the EC50 (MKN-45, read-out: RMC-7977 EC50 (M), MKN45, MET amp, Stomach) was 8.64e-09 M and the EC50 (MeWo, read-out: RMC-7977 EC50 (M), MEWO, NF1 LOF, Skin) was 4.86e-09 M. The EC50 (NCI-H23, read-out: RMC-7977 EC50 (M), NCIH23, KRAS G12C, Lung) was 8.51e-10 M, the EC50 (NCI-H358, read-out: RMC-7977 EC50 (M), NCIH358, KRAS G12C, Lung) was 6.31e-10 M and the EC50 (NCI-H441, read-out: RMC-7977 EC50 (M), NCIH441, KRAS G12V, Lung) was 3.89e-10 M. The EC50 (NCI-H460, read-out: RMC-7977 EC50 (M), NCIH460, KRAS Q61H, Lung) was 6.17e-09 M, the EC50 (NCI-H508, read-out: RMC-7977 EC50 (M), NCIH508, BRAF mut other, Large intestine/Colorectum) was 1.21e-07 M and the EC50 (NCI-H520, read-out: RMC-7977 EC50 (M), NCIH520, RAS pathway WT, Lung) was 2.85e-08 M. It also gave an EC50 (NCI-H716, read-out: RMC-7977 EC50 (M), NCIH716, KRAS R97I, Large intestine/Colorectum) of 2.75e-09 M, an EC50 (NCI-H727, read-out: RMC-7977 EC50 (M), NCIH727, KRAS G12V, Lung) of 7.24e-10 M and an EC50 (NCI-H747, read-out: RMC-7977 EC50 (M), NCIH747, KRAS G13D, Large intestine/Colorectum) of 1.82e-09 M. For the same compound, the EC50 (NCI-H1155, read-out: RMC-7977 EC50 (M), NCIH1155, KRAS Q61H, Lung) was over 1e-06 M, the EC50 (NCI-H1299, read-out: RMC-7977 EC50 (M), NCIH1299, NRAS Q61K, Lung) was 1.78e-09 M and the EC50 (NCI-H1373, read-out: RMC-7977 EC50 (M), NCIH1373, KRAS G12C, Lung) was 1.78e-09 M. For the same compound, the EC50 (NCI-H1395, read-out: RMC-7977 EC50 (M), NCIH1395, BRAF mut other, Lung) was over 1e-06 M, the EC50 (NCI-H1581, read-out: RMC-7977 EC50 (M), NCIH1581, RAS pathway WT, Lung) was 5.55e-08 M and the EC50 (NCI-H1650, read-out: RMC-7977 EC50 (M), NCIH1650, EGFR mut, Lung) was 4.04e-08 M. It also gave an EC50 (NCI-H1666, read-out: RMC-7977 EC50 (M), NCIH1666, BRAF mut other, Lung) of 8.2e-09 M, an EC50 (NCI-H1792, read-out: RMC-7977 EC50 (M), NCIH1792, KRAS G12C, Lung) of 1.91e-09 M and an EC50 (NCI-H1838, read-out: RMC-7977 EC50 (M), NCIH1838, NF1 LOF, Lung) of 8.76e-09 M. For the same compound, the EC50 (NCI-H1915, read-out: RMC-7977 EC50 (M), NCIH1915, HRAS Q61L, Lung) was 1.62e-08 M, the EC50 (NCI-H1944, read-out: RMC-7977 EC50 (M), NCIH1944, KRAS G13D, Lung) was 3.16e-08 M and the EC50 (NCI-H1975, read-out: RMC-7977 EC50 (M), NCIH1975, EGFR mut, Lung) was 4.07e-09 M. It also gave an EC50 (NCI-H1993, read-out: RMC-7977 EC50 (M), NCIH1993, MET amp, Lung) of 4.57e-09 M, an EC50 (NCI-H2009, read-out: RMC-7977 EC50 (M), NCIH2009, KRAS G12A, Lung) of 5.75e-09 M and an EC50 (NCI-H2087, read-out: RMC-7977 EC50 (M), NCIH2087, NRAS Q61K, Lung) of 5.89e-10 M. For the same compound, the EC50 (NCI-H2110, read-out: RMC-7977 EC50 (M), NCIH2110, PTPN11 mut, Lung) was 7.95e-09 M, the EC50 (NCI-H2122, read-out: RMC-7977 EC50 (M), NCIH2122, KRAS G12C, Lung) was 9.33e-10 M and the EC50 (NCI-H2172, read-out: RMC-7977 EC50 (M), NCIH2172, RAS pathway WT, Lung) was 4.73e-07 M. It also gave an EC50 (NCI-H2228, read-out: RMC-7977 EC50 (M), NCIH2228, ALK fusion, Lung) of 1.41e-08 M, an EC50 (NCI-H3122, read-out: RMC-7977 EC50 (M), NCIH3122, ALK fusion, Lung) of 4.62e-09 M and an EC50 (NCI-H3255, read-out: RMC-7977 EC50 (M), NCIH3255, EGFR mut, Lung) of 6.28e-09 M. The EC50 (NF1^LOF cell lines, read-out: median EC50) was 3.25e-08 M, the EC50 (NRAS and HRAS mutant cell lines, read-out: median EC50) was 6.76e-09 M and the EC50 (NUGC-4, read-out: RMC-7977 EC50 (M), NUGC4, NF1 LOF, Stomach) was 3.16e-09 M.
